Experimental data reported in patent publication US6511848B2, “Process for producing and multiplying lymphocytes” (Winfried Albert, priority 1996, dated 2003).

Experiments:
killer T cells = assay: Multiplication of killer T cells in serum-free DF medium; assay type: cell-based, human
Description: Mononuclear cells from peripheral blood (PBMNC) of human donors are isolated by means of gradient centrifugation (lymphocyte separation medium, BM), washed twice with phosphate-buffered saline solution and incubated at a density of 5-10×10^6 cells/ml DF medium according to Thiele and Lipsky (J. Immunol. 136 (1986) 1038-1048) with 250 μM leucyl-leucine-methyl ester (BM) for 20 minutes at room temperature. After washing with DF medium the cells are cultured at 37° C. in 8% CO2 atmosphere at a density of 1-2×10^6 per ml DF medium together with irradiated (2000 rad) HB654 cells or HB617 cells (stimulator cells; 2-5×10^5 per ml). On day 5-6 of the co-culture half to two thirds of the culture medium is renewed and irradiated stimulator cells (2-5×10^5 per ml) are added again. From day 8-10 after starting the co-culture, when all stimulator cells have been destroyed by the cytotoxic activity of the killer T cells, the killer T cells are used for the following examples. […]

[1] = system: Mononuclear cells from peripheral blood (PBMNC); assay: Multiplication of NK and T lymphocytes from mononuclear cells of human blood in serum-free medium; assay type: cell-based; details: serum-free DF medium, single cytokine
From the text: Mononuclear cells from peripheral blood (PBMNC) of a human donor are isolated by means of gradient centrifugation (lymphocyte separation medium, Boehringer Mannheim GmbH, Germany (BM)), washed twice with phosphate-buffered saline solution and taken up in DF medium at a density of 1×10^6 cells/ml and cultured in three separate preparations which are denoted A, B and C. […] Half of the culture medium (+cytokine(s)) is renewed every second day and the cell count is adjusted to ca. 1×10^6 cells/ml during the first 7 days and subsequently to ca. […].

How did the “multiplication of killer T cells (in words)” value (killer T cells; additive alone, without growth factor) turn out when `CC[C@@H]1/C=C(\C)C[C@H](C)C[C@H](OC)[C@H]2O[C@@](O)(C(=O)C(=O)N3CCCC[C@H]3C(=O)O[C@H](/C(C)=C/[C@@H]3CC[C@@H](O)[C@H](OC)C3)[C@H](C)[C@@H](O)CC1=O)[C@H](C)C[C@@H]2OC` [Ascomycin, reference compound] was run?
The value was “no multiplication”.

“IL-15: Human recombinant IL-15 (R & D Systems), 15 ng/ml, lymphocyte growth factor” was tested. Which “doubling cycles after which proliferation stagnates” value (killer T cells; growth factor alone) did it give?
Its value is 3 doubling cycles.

With TGFβ1: rh TGFβ1 (BM), 4 ng/ml as the compound, how does the “growth behaviour of the cells (in words)” value [1] read?
The value was “do not multiply”.
